The results in this text go back to US20130029970A1 (priority 2009, published 2013).

Like-named read-outs stand apart in the source and are kept apart here.

One assay concerns the target T1, human CB2 receptors (Homo sapiens, UniProt P34972).
T1 construct: (cDNA clone) CNR0200000
Description: cAMP assay in HEK-293 cells, hCB2 agonist. It counts as cell-based. Summed up: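 Stable hCB2 HEK-293 cells in HBSS/10 mM HEPES/0.1% fatty-acid-free BSA incubated 30 min at 37° C with compound; forskolin 90 uM in 3× compound mix.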
On the technique in general: cAMP levels reflect the balance of adenylyl cyclase and phosphodiesterase activity.

In another assay the target is T2, human CB1 receptors (Homo sapiens, UniProt P21554).
T2 construct: (cDNA clone) CNR01L000
Briefly: cAMP assay in HEK-293 cells, hCB1 agonist. The format is cell-based. Put shortly: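 Agonist EC50 taken as concentration giving half inhibition of forskolin-driven cAMP, normalized to forskolin maximum, from sigmoidal curves. Whole HEK-293 cells stably expressing hCB1, in HEPES/BSA-containing HBSS, exposed 30 min at 37° C. to compound with forskolin (90 uM in 3× dilution); cAMP read after lysis.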

The target of a further assay is T3, human CB2 (hCB2) (Homo sapiens, UniProt P34972).
T3 construct: (cDNA clone) CNR0200000
Description: 35S GTPγS binding assay, hCB2 agonist. It counts as biochemical. Summed up: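 Agonist-stimulated [35S]GTPγS (0.1 nM) binding measured by scintillation proximity after 90 min at room temperature. Reaction buffer: 50 mM HEPES pH 7.4, 100 mM NaCl, 5 mM MgCl2, 0.001% saponin plus 20 uM GDP. Membranes (5 μg) came from transfected cells expressing hCB2 cDNA (pcDNA3.1+ vector).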

The mark [1] stands for this setting: inhibition of forskolin-stimulated cAMP, HEK-293 cells, read-out: hCB1 EC50 (cAMP ag).
Setting [2] is: inhibition of forskolin-stimulated cAMP, HEK-293 cells.
[3] abbreviates: inhibition of forskolin-stimulated cAMP, HEK-293 cells, read-out: hCB2 EC50 (cAMP ag).
Setting [4] is: GTPγS agonist, HEK-293 membranes, read-out: hCB2 EC50 (GTPyS ag).

T3 sequence (P34972 whole entry): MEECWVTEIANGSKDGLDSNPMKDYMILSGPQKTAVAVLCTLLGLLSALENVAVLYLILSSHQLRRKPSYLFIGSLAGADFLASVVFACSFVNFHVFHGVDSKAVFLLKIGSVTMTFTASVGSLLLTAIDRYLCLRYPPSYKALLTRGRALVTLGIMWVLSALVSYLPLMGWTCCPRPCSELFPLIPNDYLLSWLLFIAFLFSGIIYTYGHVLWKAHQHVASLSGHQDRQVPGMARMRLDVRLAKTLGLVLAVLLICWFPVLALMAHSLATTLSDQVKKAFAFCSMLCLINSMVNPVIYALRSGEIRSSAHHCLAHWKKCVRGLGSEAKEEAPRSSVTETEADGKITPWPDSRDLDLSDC
T1 sequence (P34972 whole entry): as above
T2 sequence (P21554 whole entry): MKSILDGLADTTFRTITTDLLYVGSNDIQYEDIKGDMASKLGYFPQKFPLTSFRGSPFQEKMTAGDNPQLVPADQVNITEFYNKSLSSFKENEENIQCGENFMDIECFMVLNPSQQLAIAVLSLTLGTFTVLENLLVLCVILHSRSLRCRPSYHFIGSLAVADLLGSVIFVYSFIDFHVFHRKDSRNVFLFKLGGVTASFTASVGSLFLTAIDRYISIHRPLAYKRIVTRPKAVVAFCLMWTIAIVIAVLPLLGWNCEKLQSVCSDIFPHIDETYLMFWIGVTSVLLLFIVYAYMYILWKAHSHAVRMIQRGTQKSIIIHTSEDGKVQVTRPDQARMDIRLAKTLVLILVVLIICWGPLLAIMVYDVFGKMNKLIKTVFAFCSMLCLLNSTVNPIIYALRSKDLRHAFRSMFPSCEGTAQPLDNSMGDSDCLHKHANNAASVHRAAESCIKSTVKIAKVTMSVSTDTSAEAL

With `Cc1cc2cc(C(=O)c3cccc4c3OCC4)sc2n1CCN1CCOCC1` [Compound 11, (2,3-Dihydrobenzofuran-7-yl)(5-methyl-6-(2-morpholinoethyl)-6H-thieno[2,3-b]pyrrol-2-yl)methanone], the EC50 (commonly the concentration giving half of the maximal effect) was under 100 nM on human CB2 receptors, 100 to 1000 nM at human CB1 receptors (setting [1]) and under 100 nM on human CB2 (hCB2).

For `Cc1cc2cc(C(=O)c3ccccc3OC(F)(F)F)sc2n1CCN1CCOCC1` [Compound 15, (5-Methyl-6-(2-morpholinoethyl)-6H-thieno[2,3-b]pyrrol-2-yl)(2-(trifluoromethoxy)phenyl)methanone], the EC50 at human CB2 receptors was under 100 nM; on human CB1 receptors (setting [1]), 100 to 1000 nM; on human CB2 (hCB2), under 100 nM.

With `Cc1cc2cc(C(=O)c3cccc(Cl)c3Cl)sc2n1S(=O)(=O)N(C)C` [Compound 41, 2-(2,3-Dichlorobenzoyl)-N,N,5-trimethyl-6H-thieno[2,3-b]pyrrole-6-sulfonamide], the results for the EC50 at human CB2 receptors, at human CB1 receptors (setting [1]) and at human CB2 (hCB2) were under 100 nM, 1000 to 10000 nM and under 100 nM, respectively.

Turning to `COc1ccc(C(=O)c2cc3cc(C)n(CCN4CCOCC4)c3s2)c(F)c1` [Compound 68, (2-Fluoro-4-methoxyphenyl)(5-methyl-6-(2-morpholinoethyl)-6H-thieno[2,3-b]pyrrol-2-yl)methanone], the EC50 at human CB2 receptors is under 100 nM; on human CB1 receptors (setting [1]), 1000 to 10000 nM; at human CB2 (hCB2), under 100 nM.

As for `Cc1cc2cc(C(=O)c3cccc(Cl)n3)sc2n1CCN1CCOCC1` [Compound 123, (6-Chloropyridin-2-yl)(5-methyl-6-(2-morpholinoethyl)-6H-thieno[2,3-b]pyrrol-2-yl)methanone], the EC50 is under 100 nM on human CB2 receptors and 100 to 1000 nM on human CB2 (hCB2). Further, on human CB1 receptors (setting [2]), the “hCB1 EC50 (cAMP ag, nM)” value is on record as “NS (NS means “Not Significant,” which means less than 30% agonist activity when compared to the positive control.)”.

For the compound `COc1ccc(C(=O)c2cc3cc(C)n(CCCCNS(C)(=O)=O)c3s2)cc1` [Compound 102, N-(4-(2-(4-Methoxybenzoyl)-5-methyl-6H-thieno[2,3-b]pyrrol-6-yl)butyl)methanesulfonamide], the EC50 on human CB2 receptors (setting [3]) and on human CB2 (hCB2) (setting [4]) was under 100 nM throughout. Further, the “hCB1 EC50 (cAMP ag, nM)” value at human CB1 receptors (setting [2]) is “NS (NS means “Not Significant,” which means less than 30% agonist activity when compared to the positive control.)”.

In the case of `COc1ccc(C(=O)c2cc3cc(C)n(CCCNS(C)(=O)=O)c3s2)cn1` [Compound 109, N-(3-(2-(6-Methoxynicotinoyl)-5-methyl-6H-thieno[2,3-b]pyrrol-6-yl)propyl)methanesulfonamide], the EC50 on human CB2 receptors (setting [3]) and on human CB2 (hCB2) (setting [4]) was under 100 nM in each case. The “hCB1 EC50 (cAMP ag, nM)” value on human CB1 receptors (setting [2]) is listed as “NS (NS means “Not Significant,” which means less than 30% agonist activity when compared to the positive control.)”.

For the compound `COc1ccc(C(=O)c2cc3cc(C)n(CCN4CCOCC4)c3s2)c(Cl)n1` [Compound 137, (2-chloro-6-methoxypyridinyl-3-yl)(5-methyl-6-(2-morpholinoethyl)-6H-thieno[2,3-b]pyrrol-2-yl)methanone], the results for the EC50 at human CB2 receptors, at human CB1 receptors (setting [1]) and on human CB2 (hCB2) were under 100 nM, 100 to 1000 nM and under 100 nM, respectively.

On to `COc1ccc(C(=O)c2cc3cc(C)n(CCCNC(=O)C(F)(F)F)c3s2)cc1` [Compound 76, 2,2,2-Trifluoro-N-(3-(2-(4-methoxybenzoyl)-5-methyl-6H-thieno[2,3-b]pyrrol-6-yl)propyl)acetamide], for which the EC50 at human CB2 receptors and at human CB2 (hCB2) was 100 to 1000 nM each time. The “hCB1 EC50 (cAMP ag, nM)” value on human CB1 receptors (setting [2]) is reported as “NS (NS means “Not Significant,” which means less than 30% agonist activity when compared to the positive control.)”.

With `COc1ccc(C(=O)c2cc3cc(C)n(CC4CCOCC4)c3s2)c(F)c1` [Compound 145, (2-fluoro-4-methoxyphenyl)(5-methyl-6-((tetrahydro-2H-pyran-4-yl)methyl)-6H-thieno[2,3-b]pyrrol-2-yl)methanone], the figures for the EC50 on human CB2 receptors, on human CB1 receptors (setting [1]) and at human CB2 (hCB2) were under 100 nM, 1000 to 10000 nM and under 100 nM, respectively.

For `CCCn1c(C)cc2cc(C(=O)c3cccc(Cl)c3Cl)sc21` [Compound 3, (2,3-Dichlorophenyl)(5-methyl-6-propyl-6H-thieno[2,3-b]pyrrol-2-yl)methanone], the EC50 on human CB2 receptors and on human CB2 (hCB2) was under 100 nM in each case. At human CB1 receptors (setting [2]), the “hCB1 EC50 (cAMP ag, nM)” value is listed as “NS (NS means “Not Significant,” which means less than 30% agonist activity when compared to the positive control.)”.

Turning to `COc1ccc(C(=O)c2cc3cc(C)n(CCN4CCCCC4)c3s2)c(O)c1` [Compound 99, (2-Hydroxy-4-methoxyphenyl)(5-methyl-6-(2-(piperidin-1-yl)ethyl)-6H-thieno[2,3-b]pyrrol-2-yl)methanone], the EC50 on human CB2 receptors and at human CB2 (hCB2) was under 100 nM throughout. In addition, the “hCB1 EC50 (cAMP ag, nM)” value on human CB1 receptors (setting [2]) was “NS (NS means “Not Significant,” which means less than 30% agonist activity when compared to the positive control.)”.

For `Cc1cc2cc(C(=O)c3cccc(Cl)c3Cl)sc2n1CC1CCCCN1C` (stereo not drawn) [Compound 24, (2,3-Dichlorophenyl)(5-methyl-6((1-methylpiperidin-2-yl)methyl)-6H-thieno[2,3-b]pyrrol-2-yl)methanone], the EC50 on human CB2 receptors and at human CB2 (hCB2) was under 100 nM throughout. The “hCB1 EC50 (cAMP ag, nM)” value at human CB1 receptors (setting [2]) is reported as “NS (NS means “Not Significant,” which means less than 30% agonist activity when compared to the positive control.)”.

`COc1ccc(C(=O)c2cc3cc(C)n(CCNS(C)(=O)=O)c3s2)cc1` [Compound 71, N-(2-(2-(4-Methoxybenzoyl)-5-methyl-6H-thieno[2,3-b]pyrrol-6-yl)ethyl)methanesulfonamide]: the EC50 on human CB2 receptors and at human CB2 (hCB2) was 100 to 1000 nM in each case. Also, the “hCB1 EC50 (cAMP ag, nM)” value on human CB1 receptors (setting [2]) is reported as “NS (NS means “Not Significant,” which means less than 30% agonist activity when compared to the positive control.)”.

For `COc1cc(F)c(C(=O)c2cc3cc(C)n(CCN4CCOCC4)c3s2)c(F)c1` [Compound 127, (2,6-difluoro-4-methoxyphenyl)(5-methyl-6-(2-morpholinoethyl)-6H-thieno[2,3-b]pyrrol-2-yl)methanone], the EC50 on human CB2 receptors is under 100 nM; at human CB1 receptors (setting [1]), 1000 to 10000 nM; at human CB2 (hCB2), under 100 nM.

Regarding `Cc1cc2cc(C(=O)c3cccnc3Cl)sc2n1CCN1CCOCC1` [Compound 17, (2-Chloropyridin-3-yl)(5-methyl-6-(2-morpholinoethyl)-6H-thieno[2,3-b]pyrrol-2-yl)methanone], the EC50 is under 100 nM at human CB2 receptors and 100 to 1000 nM at human CB2 (hCB2). Moreover, the “hCB1 EC50 (cAMP ag, nM)” value at human CB1 receptors (setting [2]) is “NS (NS means “Not Significant,” which means less than 30% agonist activity when compared to the positive control.)”.

Take `COc1ccc(C(=O)c2cc3cc(C)n(CCN4CCSCC4)c3s2)cc1` [Compound 110, (4-Methoxyphenyl)(5-methyl-6-(2-thiomorpholinoethyl)-6H-thieno[2,3-b]pyrrol-2-yl)methanone]: the EC50 at human CB2 receptors was under 100 nM; at human CB1 receptors (setting [1]), 1000 to 10000 nM; on human CB2 (hCB2) it was under 100 nM.

For the compound `Cc1c(Cl)c2cc(C(=O)c3cccc(Cl)c3Cl)sc2n1CCN1CCOCC1` [Compound 27, (4-chloro-5-methyl-6-(2-morpholinoethyl)-6H-thieno[2,3-b]pyrrol-2-yl)(2,3-dichlorophenyl)methanone], the EC50 was under 100 nM at human CB2 receptors, 100 to 1000 nM on human CB1 receptors and under 100 nM on human CB2 (hCB2).

Regarding `COc1ccc(C(=O)c2cc3cc(C)n(CCN4CCCCC4)c3s2)c(Cl)c1` [Compound 90, (2-Chloro-4-methoxyphenyl)(5-methyl-6-(2-(piperidin-1-yl)ethyl)-6H-thieno[2,3-b]pyrrol-2-yl)methanone], the results for the EC50 at human CB2 receptors, at human CB1 receptors (setting [1]) and on human CB2 (hCB2) were under 100 nM, 100 to 1000 nM and under 100 nM, respectively.

As for `COc1ccc(Cn2c(C)cc3cc(C(=O)c4ccc(OC)cc4)sc32)cc1` [Compound 103, (6-(4-Methoxybenzyl)-5-methyl-6H-thieno[2,3-b]pyrrol-2-yl)(4-methoxyphenyl)methanone], the EC50 on human CB2 receptors and on human CB2 (hCB2) was 100 to 1000 nM in each case. Besides, the “hCB1 EC50 (cAMP ag, nM)” value at human CB1 receptors (setting [2]) is given as “NS (NS means “Not Significant,” which means less than 30% agonist activity when compared to the positive control.)”.

In the case of `Cc1cc2cc(C(=O)c3ccc(OC(F)(F)F)cc3)sc2n1CCN1CCOCC1` [Compound 65, (5-Methyl-6-(2-morpholinoethyl)-6H-thieno[2,3-b]pyrrol-2-yl)(4-(trifluoromethoxy)phenyl)methanone], the EC50 at human CB2 receptors and at human CB2 (hCB2) was 100 to 1000 nM each time. In addition, the “hCB1 EC50 (cAMP ag, nM)” value on human CB1 receptors (setting [2]) was “NS (NS means “Not Significant,” which means less than 30% agonist activity when compared to the positive control.)”.
